From the CheMixHub viscosity set

Experiment: xn = mol fraction of the nth substance listed

OCCNCCO + CN1CCCC1=O
viscosity [mPa·s], 101 kPa
Conditions	293.15 K	303.15 K	313.15 K	323.15 K
x2 = 0.1012	457.2	211.6	100.2	38.39
x2 = 0.1941	–	103.8	43.29	27
x2 = 0.2002	222.2	106.2	60.47	24.87
x2 = 0.3004	85.35	47.36	28.26	17.59
x2 = 0.4003	53.69	31.19	19.32	12.45
x2 = 0.4024	–	31.82	15.04	10.25
x2 = 0.4998	27.76	16.74	10.6	7.513
x2 = 0.5851	–	16.32	7.42	6.32
x2 = 0.6003	16.21	9.543	5.75	3.961
x2 = 0.7	7.618	5.537	4.107	3.18
x2 = 0.7962	–	8.38	4.04	3.22
x2 = 0.7997	4.326	3.448	2.746	2.257
x2 = 0.8994	2.841	2.318	1.927	1.63

CCC(C)=O + CN(C)C=O
298.15 K, 101 kPa
Conditions	viscosity [mPa·s]
x2 = 0.0395	0.387
x2 = 0.0843	0.403
x2 = 0.1186	0.414
x2 = 0.1681	0.43
x2 = 0.2276	0.451
x2 = 0.2773	0.471
x2 = 0.3768	0.499
x2 = 0.5116	0.547
x2 = 0.6168	0.581
x2 = 0.7438	0.662
x2 = 0.8079	0.698

OCCNCCO + CN(C)C=O
viscosity [mPa·s], 101 kPa
Conditions	298.15 K	303.15 K	308.15 K	313.15 K	318.15 K	323.15 K
x2 = 0.7704	2.703	2.509	2.34	2.172	2.034	1.879
x2 = 0.8119	2.172	2.009	1.842	1.682	1.542	1.427
x2 = 0.8519	1.853	1.686	1.559	1.429	1.295	1.204
x2 = 0.8907	1.53	1.423	1.321	1.206	1.115	1.03
x2 = 0.9283	1.357	1.238	1.14	1.043	0.9653	0.8984
x2 = 0.9647	1.169	1.097	1.02	0.9487	0.8828	0.8316

COc1ccccc1N + CNC=O
viscosity [mPa·s], 100 kPa
Conditions	x2 = 0.0714	x2 = 0.1715	x2 = 0.2636	x2 = 0.3576	x2 = 0.4701	x2 = 0.5625	x2 = 0.6556	x2 = 0.7454	x2 = 0.8325
303.15 K	4.69	4.361	4.058	3.747	3.373	3.065	2.753	2.45	2.155
308.15 K	4.301	4.001	3.725	3.441	3.1	2.817	2.532	2.256	1.986
313.15 K	3.99	3.713	3.456	3.192	2.875	2.613	2.348	2.091	1.841
318.15 K	3.702	3.446	3.209	2.964	2.67	2.428	2.182	1.944	1.711

C1CCCCC1 + CO
viscosity [mPa·s], 101.32 kPa
Conditions	321.15 K	322.15 K	323.15 K
x2 = 0.121	0.5549	0.5469	0.539
x2 = 0.226	0.5465	0.5386	0.5465
x2 = 0.396	0.5423	0.5334	0.5239
x2 = 0.467	0.5629	0.5508	0.5356
x2 = 0.5	0.5933	0.5559	0.5379
x2 = 0.527	0.5771	0.5464	0.53
x2 = 0.637	0.5116	0.5017	0.4925
x2 = 0.724	0.4688	0.4624	0.4564
x2 = 0.762	0.4569	0.4514	0.4459
x2 = 0.798	0.4443	0.4363	0.4338
x2 = 0.83	0.4338	0.4284	0.4233
x2 = 0.86	0.4249	0.4198	0.4148
x2 = 0.913	0.4122	0.4074	0.4024
x2 = 0.959	0.4053	0.4003	0.3956

COC(C)=O + CO
298.15 K, 101.33 kPa
Conditions	viscosity [mPa·s]
x1 = 0.0996	0.498
x1 = 0.2029	0.462
x1 = 0.3433	0.421
x1 = 0.4025	0.41
x1 = 0.4912	0.397
x1 = 0.6272	0.386
x1 = 0.7892	0.38
x1 = 0.8704	0.381

COCCOC + CO
298.15 K, 101 kPa
Conditions	viscosity [mPa·s]
x1 = 0.03801	0.5333
x1 = 0.08163	0.5252
x1 = 0.1322	0.5142
x1 = 0.1916	0.4946
x1 = 0.2623	0.479
x1 = 0.3478	0.4627
x1 = 0.4534	0.4496
x1 = 0.5871	0.4355
x1 = 0.7619	0.4209

O=C(O)c1ccccc1 + CO
viscosity [mPa·s]
Conditions	298.15 K	303.15 K	308.15 K	313.15 K	318.15 K
101 kPa, x1 = 0.15	–	1.196	–	–	0.9466
101 kPa, x1 = 0.151	1.311	1.196	1.098	1.014	0.9466
101 kPa, x1 = 0.16	–	1.29	–	–	1.002
101 kPa, x1 = 0.179	–	1.36	1.25	1.147	1.053
101 kPa, x1 = 0.18	–	1.36	–	–	1.053
101 kPa, x1 = 0.2	–	–	–	–	1.133
101.33 kPa, x1 = 0.15	1.311	1.196	1.098	1.014	0.9466
101.33 kPa, x1 = 0.1514	–	1.196	–	–	0.9466
101.33 kPa, x1 = 0.1626	–	1.29	–	–	1.002
101.33 kPa, x1 = 0.1788	–	1.36	–	–	1.053
101.33 kPa, x1 = 0.18	–	1.36	1.25	1.147	1.053
101.33 kPa, x1 = 0.1961	–	–	–	–	1.133
